Reference: BindingDB's records for doi:10.1002/cbic.200800782 (Philipps-UniversitÄT Marburg, 2009)

Target: Queuine tRNA-ribosyltransferase (Zymomonas mobilis subsp. mobilis (strain ATCC 31821 / ZM4 / CP4), UniProt P28720)
Assay: Enzyme Assay
Details: pH 7.3
Text: Inhibition assay using tRNA-guanine transglycosylase (TGT).

Sequence of Queuine tRNA-ribosyltransferase (P28720 whole entry): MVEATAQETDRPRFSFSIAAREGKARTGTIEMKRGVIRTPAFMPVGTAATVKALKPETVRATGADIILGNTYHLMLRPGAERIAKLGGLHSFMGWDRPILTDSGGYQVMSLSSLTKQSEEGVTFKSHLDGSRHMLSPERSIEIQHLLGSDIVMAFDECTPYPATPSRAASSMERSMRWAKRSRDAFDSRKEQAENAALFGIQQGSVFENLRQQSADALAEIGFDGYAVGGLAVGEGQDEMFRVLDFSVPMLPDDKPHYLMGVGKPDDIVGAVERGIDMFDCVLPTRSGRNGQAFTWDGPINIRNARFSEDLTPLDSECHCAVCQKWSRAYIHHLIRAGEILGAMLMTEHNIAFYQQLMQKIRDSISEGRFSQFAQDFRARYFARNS

Going from Nc1nc2cc3nc(NCCc4ccccc4)[nH]c3cc2c(=O)[nH]1 [lin-benzoguanine scaffold, 10] to Nc1nc2cc3nc(NCc4cccc5ccccc45)[nH]c3cc2c(=O)[nH]1 [lin-benzoguanine scaffold, 8], the Ki falls from 10 nM to 5.5 nM (1.8-fold).

Nc1nc2cc3[nH]c(NCCN4CCOCC4)nc3cc2c(=O)[nH]1 [lin-benzoguanine scaffold, 9] and CNc1nc2cc3c(=O)[nH]c(N)nc3cc2[nH]1 [lin-benzoguanine scaffold, 6] are within 1.5-fold of each other in Ki: 6 nM for the first, 5.8 nM for the second.

First: Nc1nc2cc3nc(NCc4cccs4)[nH]c3cc2c(=O)[nH]1 [lin-benzoguanine scaffold, 7]
Second: Cc1nc2cc3nc(N)[nH]c(=O)c3cc2[nH]1 [lin-benzoguanine scaffold, 4]
The Ki of the first is 430-fold lower: 3.5 nM for the first, 1500 nM for the second. The first binds more tightly here.

Going from CN(C)c1ccc2c(=O)[nH]c(N)nc2c1 [Quinazolinone scaffold, 1] to CN(Cc1ccccc1)c1ccc2c(=O)[nH]c(N)nc2c1 [Quinazolinone scaffold, 2], the Ki falls from 31000 nM to 7600 nM (4.1-fold).

Going from Nc1nc2cc3nc[nH]c3cc2c(=O)[nH]1 [lin-benzoguanine scaffold, 3] to Nc1nc2cc3nc(N)[nH]c3cc2c(=O)[nH]1 [lin-benzoguanine scaffold, 5], the Ki falls from 4100 nM to 77 nM (53-fold). The second binds more tightly here.
